In ChEMBL document CHEMBL4321793, “Can Cysteine Protease Cross-Class Inhibitors Achieve Selectivity?” (J Med Chem, 2019) one finds IC50, selectivity ratio and Ki data, which are given here for three compounds.

One series has as its target Cruzipain (Trypanosoma cruzi, UniProt P25779). Nature of the series: Reversible inhibition of Trypanosoma cruzi cruzipain.
Series [1] deals with T1, Procathepsin L (Homo sapiens, UniProt P07711). Nature of the series: Reversible inhibition of human cathepsin L.
T1 sequence (P07711 whole entry): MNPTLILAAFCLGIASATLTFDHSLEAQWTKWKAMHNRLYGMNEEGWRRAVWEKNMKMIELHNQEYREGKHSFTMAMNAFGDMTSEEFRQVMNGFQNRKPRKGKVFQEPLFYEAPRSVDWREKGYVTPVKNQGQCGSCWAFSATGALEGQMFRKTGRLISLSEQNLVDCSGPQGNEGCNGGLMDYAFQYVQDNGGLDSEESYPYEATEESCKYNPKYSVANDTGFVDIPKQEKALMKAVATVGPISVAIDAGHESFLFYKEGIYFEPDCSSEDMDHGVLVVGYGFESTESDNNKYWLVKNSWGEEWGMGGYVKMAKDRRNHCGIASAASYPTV
For a further series, the target named is Cathepsin B (Homo sapiens, UniProt P07858). Nature of the series: Reversible inhibition of human cathepsin B.
The test system of series [2] is human cathepsin L versus Trypanosoma cruzi cruzipain. Nature of the series: Selectivity ratio of IC50 for reversible inhibition of human cathepsin L to IC50 for reversible inhibition of Trypanosoma cruzi cruzipain. The format is toxicity. As to conditions: read-out: Ratio IC50.
For series [3], the system named is human cathepsin B versus Trypanosoma cruzi cruzipain. Nature of the series: Selectivity ratio of IC50 for reversible inhibition of human cathepsin B to IC50 for reversible inhibition of Trypanosoma cruzi cruzipain. The format is toxicity. The conditions noted are these: read-out: Ratio IC50.
In another series the target is Rhodesain (Trypanosoma brucei rhodesiense, UniProt Q95PM0). Nature of the series: Inhibition of Trypanosoma brucei rhodesiense rhodesain.
Sequence of Rhodesain (Q95PM0 whole entry): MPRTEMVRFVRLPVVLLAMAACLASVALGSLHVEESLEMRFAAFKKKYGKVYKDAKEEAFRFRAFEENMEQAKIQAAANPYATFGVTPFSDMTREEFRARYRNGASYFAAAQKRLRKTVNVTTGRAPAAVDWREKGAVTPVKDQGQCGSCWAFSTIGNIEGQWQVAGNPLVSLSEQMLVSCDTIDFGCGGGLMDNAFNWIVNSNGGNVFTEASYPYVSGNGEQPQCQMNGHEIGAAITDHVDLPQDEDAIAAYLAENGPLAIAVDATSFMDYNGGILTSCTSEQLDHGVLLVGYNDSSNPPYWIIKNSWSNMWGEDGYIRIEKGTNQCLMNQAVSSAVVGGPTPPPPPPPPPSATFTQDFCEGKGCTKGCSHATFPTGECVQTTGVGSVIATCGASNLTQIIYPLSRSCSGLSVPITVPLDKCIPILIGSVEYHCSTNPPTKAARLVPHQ
Series [4] concerns the target T1, Procathepsin L. Nature of the series: Inhibition of human cathepsin L.

Sequence of Cruzipain (P25779 whole entry): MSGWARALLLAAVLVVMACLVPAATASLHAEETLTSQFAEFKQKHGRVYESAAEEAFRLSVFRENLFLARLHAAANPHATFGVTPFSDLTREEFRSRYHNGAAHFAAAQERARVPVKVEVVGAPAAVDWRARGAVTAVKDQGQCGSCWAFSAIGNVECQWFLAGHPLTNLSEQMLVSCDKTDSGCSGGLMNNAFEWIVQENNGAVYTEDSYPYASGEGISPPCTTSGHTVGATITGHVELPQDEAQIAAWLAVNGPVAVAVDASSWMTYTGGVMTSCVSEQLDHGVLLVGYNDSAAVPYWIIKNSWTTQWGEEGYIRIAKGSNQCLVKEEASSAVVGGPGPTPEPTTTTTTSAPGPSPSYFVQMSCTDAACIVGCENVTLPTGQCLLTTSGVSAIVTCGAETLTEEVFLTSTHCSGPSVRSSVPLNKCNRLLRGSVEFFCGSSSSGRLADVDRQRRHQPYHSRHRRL

The term IC50 denotes the concentration needed to halve the response being measured. High values mean weaker potency, low ones greater potency. For the compound `CC(C)(F)C[C@H](N[C@@H](c1ccc(-c2ccc(N3CCNCC3)cc2)cc1)C(F)(F)F)C(=O)NCC#N`, the values for the IC50 against Cruzipain, against Procathepsin L [1] and at Cathepsin B were 0.8 nM, 47 nM and 1110 nM, respectively. Moreover, the selectivity ratio stood at 58 in series [2] and 1390 in series [3].
The term Ki denotes the equilibrium dissociation constant of an inhibitor or competing ligand from its target. Higher therefore signals lower affinity. In the case of `CCC[C@H]1CC[C@H](N(Cc2ccc3c(c2)OCO3)c2nc(C#N)nc(N3CCOCC3)n2)CC1`, the Ki was found to be 2 nM on Rhodesain and 690 nM on Procathepsin L [4].
Compound `N#Cc1nc(N2CCOCC2)nc(N(Cc2ccc3c(c2)OCO3)C2CCCCC2)n1` registered a Ki on Procathepsin L [4] of 33 nM.
